Test results from patent US10004732B2 (Novartis AG, priority 2014, dated 2018).
Where two headings read alike, the source gives them in different places.

How the values were obtained:
[1] = molecular target: T1, PI 3-kinase alpha (Homo sapiens, UniProt P42336); experiment: Kinase Glo Luminescent Kinase Assay (Kglo), assay A; format: biochemical; conditions: read-out: Assay A PI3Kα IC50
[2] = molecular target: Vps34 (Homo sapiens, UniProt Q8NEB9); experiment: Kinase Glo Luminescent Kinase Assay (Kglo), assay C; format: biochemical; conditions: read-out: Assay C VPS34 IC50
Description: (§1) Kinase Glo Luminescent Kinase Assay (Kglo) for Pb 3-Kinase Alpha (A), Pb 3-Kinase Beta (B), Vps34 (C), Pb 4-Kinase Beta (D)
(§2) The Kinase Glo Luminescent Kinase Assay (Promega, Madison/Wis., USA) is a homogeneous HTS method of measuring kinase activity by quantifying the amount of ATP remaining in solution following a kinase reaction.
(§3) L-α-phosphatidylinositol (PI), provided as 10 mg/ml solution in methanol, was transferred into a glass tube and dried under a nitrogen beam. It was then resuspended in 3% OctylGlucoside (1-0-n-octyl-beta-D-glucopyranoside) by vortexing and stored at 4° C. 5 μL of a mix of PI/OctylGlucoside with the PI 3-kinase alpha and PI 3-kinase beta subtypes, or Vps34 or PI 4-kinase beta were added. Kinase reactions were started by the addition of 5 μl of an ATP-mix containing in a final volume 10 μL 10 mM TRIS-HCl pH 7.5, 3 mM MgCl2, 50 mM NaCl, 0.05% CHAPS, 1 mM DTT and 1 μM ATP at room temperature.
(§4) All fits were performed with the program XLfit4 (ID Business Solutions, Guildford, UK).

[3] = molecular target: PI 4-kinase beta (Homo sapiens, UniProt Q9UBF8); experiment: Kinase Glo Luminescent Kinase Assay (Kglo), assay D; format: biochemical; conditions: read-out: Assay D PI4Kβ IC50
Description: as §1, §2, §3, §4

[4] = molecular target: T2, PI 3-kinase gamma (Homo sapiens, UniProt P48736); experiment: TR-FRET Adapta assay, assay E; format: biochemical; conditions: read-out: Assay E PI3Kγ IC50
Description: (§5) TR-FRET Adapta Assay for PI 3-Kinase Gamma (E), PI 3-Kinase Delta (F)
(§6) The TR-FRET Adapta™ Universal Kinase Assay Kit was purchased from Invitrogen Corporation (Carlsbad/CA, USA) (Cat. No. PV5099).
(§7) PIK3CD substrate phosphatidylinositol (PI) was obtained from Invitrogen (vesicules consisting of 2 mM phosphatidylinositol (PI) in 50 mM HEPES pH7.5; Cat. No. PV5371). PIK3CG substrate phosphatidylinositol-4,5-bisphosphate (PIP(4,5)2 was obtained from Invitrogen (PIP2:PS large unilamellar vesicules consisting of 1 mM PIP2: 19 mM PS in 50 mM HEPES pH7.5, 3 mM MgCl2, 1 mM EGTA; Cat. No. PV5100).
(§8) Time-Resolved Fluorescence Resonance Energy Transfer (TR-FRET) is a technology based on energy transfer between two adjacent dyes, from an excited electron in one dye (the donor) to an electron of an adjacent dye (the acceptor) through resonance, then released as a photon. This energy transfer is detected by an increase in the fluorescence emission of the acceptor, and a decrease in the fluorescence emission of the donor. TR-FRET assays for protein kinases use a long-lifetime lanthanide Terbium or Europium chelates as the donor species which overcome interference from compound autofluorescence or light scatter from precipitated compounds, by introducing a delay after excitation by a flashlamp excitation source. Results are often expressed as a ratio of the intensities of the acceptor and donor fluorophores. The ratiometric nature of such a value corrects for differences in assay volumes between wells, as well as corrects for quenching effects due to colored compounds. The Adapta™ assay can be divided into two phases: a kinase reaction phase and an ADP detection phase. In the kinase reaction phase, all kinase reaction components are added to the well and the reaction is allowed to incubate for a set period of time specific for each kinase. […] In the presence of an inhibitor, the amount of ADP formed by the kinase reaction is reduced, and the resulting intact antibody-tracer interaction maintains a high TR-FRET signal.
(§9) 50 nL of compound dilutions were dispensed onto white 384-well small volume polystyrene plate. Then 5 μL of either PI 3-kinase gamma or PI 3-kinase delta and lipid substrate (PI or PIP2:PS) followed by 5 μL of ATP (final assay volume 10 μL) are incubated at RT. The standard reaction buffer for the Adapta™ TR-FRET assay contained 10 mM Tris-HCl pH 7.5, 3 mM MgCl2, 50 mM NaCl, 1 mM DTT, 0.05% CHAPS 3-[(3-cholamidopropyl)dimethylammonio]-1-propanesulfonate).
(§10) Data are analyzed using Excel fit software or Graphpad Prism. IC50 values were derived by fitting a sigmoidal dose-response curve to a plot of assay readout over inhibitor concentration. All fits were performed with the program XLfit4 (ID Business Solutions, Guildford, UK). […] All fits were performed with the program XLfit4 (ID Business Solutions, Guildford, UK).

[5] = molecular target: T2, PI 3-kinase gamma; experiment: Cellular U937 AKT assay K1 (MSD); format: cell-based; conditions: U937 cells, K1 format; read-out: Assay K1 PI3Kγ IC50
[6] = molecular target: T2, PI 3-kinase gamma; experiment: Cellular U937 AKT assay K2 (HTRF); format: cell-based; conditions: U937 cells, K2 format; read-out: Assay K2 PI3Kγ IC50
[7] = tested on: IL-8-induced neutrophil shape change in human whole blood; experiment: Whole blood neutrophil shape change assay (L); format: cell-based; conditions: IL-8, human whole blood, read-out: Assay L WBSC IC50
[8] = Microsomal clearance assay (M); conditions: intrinsic clearance in rat liver microsomes
Description: The experiments were performed in 96-well glass plates at 37° C. on an automated Tecan EVO platform. Test compounds at a concentration of 10 mM in pure DMSO were diluted 1:1000 in water to 10 μM. […] Reactions were initiated by the addition of 150 μL of a cofactor solution containing 2 mM NADPH.

[9] = molecular target: T3, PI 3-kinase beta (Homo sapiens, UniProt P42338); experiment: Kinase Glo Luminescent Kinase Assay (Kglo), assay B; format: biochemical; conditions: read-out: Assay B PI3Kβ IC50
Target sequence in this assay (P42338 whole entry): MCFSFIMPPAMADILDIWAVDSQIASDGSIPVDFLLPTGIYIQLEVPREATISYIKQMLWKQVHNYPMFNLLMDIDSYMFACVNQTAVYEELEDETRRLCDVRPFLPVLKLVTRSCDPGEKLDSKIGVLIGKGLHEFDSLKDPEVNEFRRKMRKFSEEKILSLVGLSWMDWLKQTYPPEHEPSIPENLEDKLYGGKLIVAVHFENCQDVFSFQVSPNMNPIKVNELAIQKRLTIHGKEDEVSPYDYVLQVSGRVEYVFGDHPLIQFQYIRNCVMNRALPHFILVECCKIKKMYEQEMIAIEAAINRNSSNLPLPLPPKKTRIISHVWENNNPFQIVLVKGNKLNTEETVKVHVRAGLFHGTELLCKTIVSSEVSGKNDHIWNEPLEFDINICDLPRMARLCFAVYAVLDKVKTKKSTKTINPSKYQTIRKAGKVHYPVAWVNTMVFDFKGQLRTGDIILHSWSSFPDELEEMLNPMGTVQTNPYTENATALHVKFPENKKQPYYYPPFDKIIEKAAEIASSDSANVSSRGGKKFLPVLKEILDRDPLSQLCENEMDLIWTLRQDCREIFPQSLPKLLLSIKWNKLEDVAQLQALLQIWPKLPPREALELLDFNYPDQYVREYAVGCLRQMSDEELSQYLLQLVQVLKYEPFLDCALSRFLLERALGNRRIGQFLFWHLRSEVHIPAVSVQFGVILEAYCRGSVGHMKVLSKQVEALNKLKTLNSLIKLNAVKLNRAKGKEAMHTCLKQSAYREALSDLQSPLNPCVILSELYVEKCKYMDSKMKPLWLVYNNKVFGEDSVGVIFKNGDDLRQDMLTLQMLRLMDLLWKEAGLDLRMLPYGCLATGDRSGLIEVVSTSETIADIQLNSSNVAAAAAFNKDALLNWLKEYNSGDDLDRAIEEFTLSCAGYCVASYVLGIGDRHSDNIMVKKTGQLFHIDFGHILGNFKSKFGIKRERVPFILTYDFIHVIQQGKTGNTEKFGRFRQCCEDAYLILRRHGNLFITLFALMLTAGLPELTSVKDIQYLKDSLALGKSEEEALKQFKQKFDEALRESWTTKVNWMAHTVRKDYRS
Target sequence in this assay (P27986 461-568 partner): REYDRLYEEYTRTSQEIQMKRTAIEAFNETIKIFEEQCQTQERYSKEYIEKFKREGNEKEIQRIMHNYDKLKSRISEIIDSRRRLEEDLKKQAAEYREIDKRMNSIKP

[10] = molecular target: T4, PI 3-kinase delta (Homo sapiens, UniProt O00329); experiment: TR-FRET Adapta assay, assay F; conditions: read-out: Assay F PI3Kδ IC50
Description: as §5, §6, §7, §8, §9, §10

[11] = molecular target: mTOR (Homo sapiens, UniProt P42345); experiment: Lanthascreen kinase binding assay, assay G; conditions: read-out: Assay G mTOR IC50
Description: Lanthascreen™ Kinase Binding Assay for mTOR (G)
Binding of an inhibitor to the kinase competes for binding with the tracer, resulting in a loss of FRET.
50 nL of compound dilutions were dispensed onto white 384-well small volume polystyrene plate.

[12] = molecular target: T1, PI 3-kinase alpha; experiment: Cellular assay H1, p-Akt (S473) in Rat-1 cells, Surefire format; format: cell-based; conditions: non-asterisked data: version H1 (Surefire format), Rat-1 cells; read-out: Assay H PI3Kα IC50
[13] = molecular target: T3, PI 3-kinase beta; experiment: Cellular assay I1, p-Akt (S473) in Rat-1 cells, Surefire format; format: cell-based; conditions: non-asterisked data: version I1 (Surefire format), Rat-1 cells; read-out: Assay I PI3Kβ IC50
Target sequence in this assay (P42338 whole entry): as the sequence (P42338 whole entry) above
Target sequence in this assay (Q63787 whole entry partner): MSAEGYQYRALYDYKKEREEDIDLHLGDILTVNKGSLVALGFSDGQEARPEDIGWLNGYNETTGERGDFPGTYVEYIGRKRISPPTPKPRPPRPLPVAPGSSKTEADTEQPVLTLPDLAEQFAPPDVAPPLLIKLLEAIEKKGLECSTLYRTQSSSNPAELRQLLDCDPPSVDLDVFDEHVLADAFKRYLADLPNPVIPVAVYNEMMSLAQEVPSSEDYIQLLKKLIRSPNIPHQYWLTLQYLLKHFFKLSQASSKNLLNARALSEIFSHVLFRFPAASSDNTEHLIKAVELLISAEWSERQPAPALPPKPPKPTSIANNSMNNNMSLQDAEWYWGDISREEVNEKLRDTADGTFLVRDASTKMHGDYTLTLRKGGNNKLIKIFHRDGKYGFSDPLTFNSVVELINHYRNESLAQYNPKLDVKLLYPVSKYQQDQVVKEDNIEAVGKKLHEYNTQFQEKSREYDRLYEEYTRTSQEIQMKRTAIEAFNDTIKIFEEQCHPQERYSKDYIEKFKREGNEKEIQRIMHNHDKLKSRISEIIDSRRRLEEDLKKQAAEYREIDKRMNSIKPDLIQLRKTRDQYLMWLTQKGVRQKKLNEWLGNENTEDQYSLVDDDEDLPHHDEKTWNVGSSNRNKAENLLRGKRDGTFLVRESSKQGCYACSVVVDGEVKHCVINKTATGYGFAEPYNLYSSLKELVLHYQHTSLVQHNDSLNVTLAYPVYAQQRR
Excerpt: Cellular Assays for PI 3-Kinase Alpha (H1), Beta (I1) and Delta (J1): Surefire Format
AlphaScreen (Amplified Luminescent Proximity Homogeneous Assay, ALPHA, Perkin Elmer) is a non-radioactive bead-based proximity assay technology to study biomolecular interactions in a homogenous microtiter plate format. The brand name SureFire denotes AlphaScreen assays that are adapted to quantify the phosphorylation of endogenous cellular proteins in cell lysates, by using matched antibody pairs, which consist of an anti-phospho-kinase and an anti-kinase antibody. The assay allows characterization of kinase signaling in cells as well as measurement of kinase inhibitor effects.
Using Rat-1 cells stably expressing myr-HA-tagged versions of the human PI3Kdelta, PI3Kalpha, or PI3Kbeta p110 catalytic subunit isoforms, the assay was developed as a two-plate protocol in a 384-well format.
For compound testing, the cells were seeded at a density of 4000 (Rat-1_PI3Kdelta), 7500 (Rat-1_PI3Kalpha), or 6200 (Rat-1_PI3Kbeta) cells in 20 μl complete growth medium into cell culture treated 384-well plates and were grown at 37° C./5% CO2/90% humidity for 24 h. Shortly before compound transfer, the complete medium was removed, 30 μl assay buffer (DMEM high glucose, 1×MEM NEAA, 10 mM HEPES, 2 mM L-glutamine, 0.1% (w/v) BSA) was added and 10 μl of the compound predilutions were transferred to the cells.

[14] = molecular target: T4, PI 3-kinase delta; experiment: Cellular assay J1, p-Akt (S473) in Rat-1 cells, Surefire format; format: cell-based; conditions: non-asterisked data: version J1 (Surefire format), Rat-1 cells; read-out: Assay J PI3Kδ IC50

T2 sequence (P48736 whole entry): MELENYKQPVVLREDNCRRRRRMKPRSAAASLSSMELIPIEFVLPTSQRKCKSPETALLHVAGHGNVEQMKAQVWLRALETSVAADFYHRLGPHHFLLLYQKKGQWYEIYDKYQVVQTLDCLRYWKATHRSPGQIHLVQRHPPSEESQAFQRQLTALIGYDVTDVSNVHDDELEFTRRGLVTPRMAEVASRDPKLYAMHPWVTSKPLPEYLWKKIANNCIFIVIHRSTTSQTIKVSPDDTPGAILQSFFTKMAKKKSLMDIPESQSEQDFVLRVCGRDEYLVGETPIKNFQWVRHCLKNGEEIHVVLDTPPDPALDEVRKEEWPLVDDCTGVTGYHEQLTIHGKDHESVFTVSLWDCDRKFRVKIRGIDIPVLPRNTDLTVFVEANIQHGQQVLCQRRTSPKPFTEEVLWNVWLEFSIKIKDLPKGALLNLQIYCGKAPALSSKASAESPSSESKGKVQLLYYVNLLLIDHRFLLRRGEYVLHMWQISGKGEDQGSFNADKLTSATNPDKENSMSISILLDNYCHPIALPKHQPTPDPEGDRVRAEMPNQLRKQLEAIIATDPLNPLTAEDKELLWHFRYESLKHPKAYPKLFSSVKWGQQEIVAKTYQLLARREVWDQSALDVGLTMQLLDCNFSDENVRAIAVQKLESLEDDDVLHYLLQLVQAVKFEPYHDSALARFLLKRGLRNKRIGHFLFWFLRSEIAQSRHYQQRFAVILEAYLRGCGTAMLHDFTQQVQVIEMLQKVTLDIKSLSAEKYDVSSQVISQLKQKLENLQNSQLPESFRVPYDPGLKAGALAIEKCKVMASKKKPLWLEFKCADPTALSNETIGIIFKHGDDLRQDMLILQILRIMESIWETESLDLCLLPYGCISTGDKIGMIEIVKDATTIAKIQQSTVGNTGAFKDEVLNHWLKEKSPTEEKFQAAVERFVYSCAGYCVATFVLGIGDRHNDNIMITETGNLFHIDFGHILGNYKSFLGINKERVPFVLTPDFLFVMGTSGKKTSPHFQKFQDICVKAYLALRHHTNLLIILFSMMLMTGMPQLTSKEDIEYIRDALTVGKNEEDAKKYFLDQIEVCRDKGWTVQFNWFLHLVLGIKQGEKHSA
Vps34, sequence (Q8NEB9 whole entry, species assumed): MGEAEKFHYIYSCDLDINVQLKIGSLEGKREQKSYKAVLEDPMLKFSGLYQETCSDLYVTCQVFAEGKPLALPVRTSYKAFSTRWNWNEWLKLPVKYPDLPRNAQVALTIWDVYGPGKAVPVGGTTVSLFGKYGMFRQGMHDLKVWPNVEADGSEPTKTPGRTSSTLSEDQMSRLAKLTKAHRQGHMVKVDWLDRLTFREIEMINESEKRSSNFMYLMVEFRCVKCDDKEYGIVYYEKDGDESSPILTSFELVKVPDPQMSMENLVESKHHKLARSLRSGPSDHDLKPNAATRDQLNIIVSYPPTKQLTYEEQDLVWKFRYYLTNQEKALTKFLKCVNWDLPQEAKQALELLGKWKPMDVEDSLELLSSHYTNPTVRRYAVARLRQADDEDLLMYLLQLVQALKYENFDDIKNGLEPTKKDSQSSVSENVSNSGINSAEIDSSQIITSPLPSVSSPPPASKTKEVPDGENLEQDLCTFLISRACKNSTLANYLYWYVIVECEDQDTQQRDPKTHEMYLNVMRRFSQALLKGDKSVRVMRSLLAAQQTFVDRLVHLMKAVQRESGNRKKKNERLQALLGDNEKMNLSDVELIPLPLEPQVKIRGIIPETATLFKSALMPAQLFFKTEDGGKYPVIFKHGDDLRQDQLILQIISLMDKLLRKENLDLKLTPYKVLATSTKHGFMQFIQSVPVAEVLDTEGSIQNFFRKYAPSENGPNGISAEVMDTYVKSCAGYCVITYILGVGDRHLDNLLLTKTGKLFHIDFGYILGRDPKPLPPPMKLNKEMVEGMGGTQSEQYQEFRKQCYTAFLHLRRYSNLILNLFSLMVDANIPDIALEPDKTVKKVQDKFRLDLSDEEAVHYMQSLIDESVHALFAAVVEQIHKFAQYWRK
PI 4-kinase beta, sequence (Q9UBF8 whole entry): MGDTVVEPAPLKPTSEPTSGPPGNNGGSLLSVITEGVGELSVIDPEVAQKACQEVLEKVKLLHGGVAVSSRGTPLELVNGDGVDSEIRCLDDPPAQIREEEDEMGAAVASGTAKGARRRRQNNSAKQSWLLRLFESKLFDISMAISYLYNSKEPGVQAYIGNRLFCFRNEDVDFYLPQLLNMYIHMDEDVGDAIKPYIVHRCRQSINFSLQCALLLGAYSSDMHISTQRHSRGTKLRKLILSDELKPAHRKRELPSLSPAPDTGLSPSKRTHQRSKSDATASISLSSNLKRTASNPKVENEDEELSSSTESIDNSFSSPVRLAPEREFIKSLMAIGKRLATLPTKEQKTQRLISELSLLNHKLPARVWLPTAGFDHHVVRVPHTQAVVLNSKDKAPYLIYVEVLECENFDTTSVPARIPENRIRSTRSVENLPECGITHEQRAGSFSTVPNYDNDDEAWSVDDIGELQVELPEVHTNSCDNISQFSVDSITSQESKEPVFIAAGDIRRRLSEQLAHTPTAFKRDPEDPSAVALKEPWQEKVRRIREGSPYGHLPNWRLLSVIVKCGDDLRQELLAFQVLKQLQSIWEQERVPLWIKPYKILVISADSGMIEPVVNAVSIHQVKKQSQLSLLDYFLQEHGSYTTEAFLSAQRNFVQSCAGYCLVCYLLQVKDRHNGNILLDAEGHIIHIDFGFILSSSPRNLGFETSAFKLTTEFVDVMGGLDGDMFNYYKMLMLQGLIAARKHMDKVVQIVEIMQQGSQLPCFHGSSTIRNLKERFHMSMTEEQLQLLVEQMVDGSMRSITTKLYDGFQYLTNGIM

SMILES	IC50 [1]	IC50 [2]	IC50 [3]	IC50 [4]	IC50 [5]	IC50 [6]	IC50 [7]	Assay M RLM CI(int) [8]	IC50 [9]	IC50 ([7]; Homo sapiens, Neutrophil)	IC50 [10]	IC50 [11]	IC50 [12]	IC50 [13]	IC50 [14]
Cc1ccc(S(=O)(=O)NCC[C@@H](O)C(F)(F)F)cc1-c1cnc(N)c(-c2cn(C)nc2C)n1 (single isomer, unassigned) [Example 52b, (R)-3-(5-Amino-6-(1,3-dimethyl-1H-pyrazol-4-yl)pyrazin-2-yl)-4-methyl-N-(4,4,4-trifluoro-3-hydroxybutyl)benzenesulfonamide or (S)-3-(5-Amino-6-(1,3-dimethyl-1H-pyrazol-4-yl)pyrazin-2-yl)-4-methyl-N-(4,4,4-trifluoro-3-hydroxybutyl)benzenesulfonamide]	230 nM	> 10000 nM	4200 nM	26 nM	60 nM	337 nM	550 nM	43 µL/min/mg							
Cc1ncc(-c2nc(-c3cc(S(=O)(=O)NCC4(O)CCOCC4)ccc3C)cnc2N)s1 [Example 45.10, 3-(5-Amino-6-(2-methylthiazol-5-yl)pyrazin-2-yl)-N-((4-hydroxytetrahydro-2H-pyran-4-yl)methyl)-4-methylbenzenesulfonamide]	20 nM	3900 nM	1900 nM	10 nM		30 nM		32 µL/min/mg	340 nM	662 nM	150 nM				
Cc1ccc(S(=O)(=O)N2CC(F)C2)cc1-c1cnc(N)c(-n2cncn2)n1 [Example 127.5]	400 nM	> 10000 nM	> 10000 nM	100 nM		419 nM		72 µL/min/mg	3100 nM	9680 nM	3900 nM	1800 nM			
Cc1ccc(S(=O)(=O)NCCC2(O)CCCCC2)cc1-c1cnc(N)c(-n2cncn2)n1 [Example 127.37]	650 nM	> 10000 nM	8000 nM	34 nM	230 nM	408 nM			1400 nM	6220 nM	1500 nM	> 10000 nM			
Cc1ccc(S(=O)(=O)N2CC(CO)C2)cc1-c1cnc(N)c(-n2cncn2)n1 [Example 127.45]	420 nM	> 9100 nM	3400 nM	60 nM		323 nM		26 µL/min/mg	6200 nM	2640 nM	1500 nM	> 9100 nM	6110 nM	9050 nM	7270 nM
Cc1ccc(S(=O)(=O)NC[C@@H]2COCCN2)cc1-c1cnc(N)c(-c2cn(C)nc2C)n1 [Example 128.6, (R)-3-(5-Amino-6-(1,3-dimethyl-1H-pyrazol-4-yl)pyrazin-2-yl)-4-methyl-N-(morpholin-3-ylmethyl)benzenesulfonamide]	190 nM	> 10000 nM	> 10000 nM	190 nM		193 nM		20 µL/min/mg	7700 nM	2180 nM	300 nM		> 10000 nM	> 10000 nM	> 10000 nM
Cc1cc(-c2nc(-c3cc(S(=O)(=O)NC[C@H]4CCCO4)ccc3C)cnc2N)ccn1 [Example 129.12, (R)-3-(5-amino-6-(2-methylpyridin-4-yl)pyrazin-2-yl)-4-methyl-N-((tetrahydrofuran-2-yl)methyl)benzenesulfonamide]	1200 nM	> 9100 nM	> 9100 nM	58 nM	804 nM	1600 nM		99 µL/min/mg	> 9100 nM		910 nM	8700 nM	4290 nM	> 10000 nM	4970 nM
